Data from US10493046B2, “5-hydroxytryptamine 1B receptor-stimulating agent for use as a promoter of satellite cells self-renewal and/or differentiation” (INSTITUT PASTEUR, priority 2015, dated 2019).
Where “and” joins values, the source holds several entries; their conditions need not be identical. Equal entries are not always repeated.

Experiments:
satellite cells [1] = assay: Satellite cell (SC) number in tibialis anterior of treated mice (histological count or FACS cytometry); type: in vivo, mouse
satellite cells [2] = assay: as above; type: in vivo, mouse; conditions: for Number of satellite cells per TA by cytometry: Tg:Pax7nGFP mice
Method: For satellite cell counting, only the tibialis anterior muscle was dissected and digested as described earlier, and the totality of the tube was analysed to assess the number of satellite cells per muscle. FACS analysis was done using a FACSasia (Beckman). All analyses and quantitation were performed using Summit v4.3 software from DakoCytomation and FloJo software. […]
In order to count the number of satellite cells, the tibialis anterior (TA) of Tg:Pax7nGFP mice were digested and analysed by FACS in placebo and vortioxetine (12 days, 20 mg/Kg) treated mice. […] After 3 weeks of vortioxetine treatment, the number of satellite cells was even higher (9351 satellite cells±706, p=0.0079) but no statistically significant differences were found between 12 days and 3 weeks of treatment (p=0.15).

satellite cells [3] = assay: FACS-sorted satellite cells in vitro, compound added to the culture medium; type: cell-based, mouse; conditions: for Pax7+ (reserve, self-renewing) cells 14 days post-plating / Pax7 positive cells 4 days post-plating / Cells MyoG+ (Myogenin staining): compound added at 10 μM; for Pax7 positive cells 4 days post-plating: 2.000 cells per cm^2; for Cells MyoG+ (Myogenin staining): after 4 days
Method: (§1) Muscle dissection was done as previously described in cold DMEM. Muscles were then chopped with small scissors and put in a 50 ml Falcon tube with collagenase 0.1% and trypsin 0.25% at 37° C. with gentle agitation. After 20 minutes, the supernatant was collected in 20% serum placed on ice, and the collagenase/trypsin solution was added to continue the digestion. Once muscle was completely digested, the solution was filtrated using 40 μm cell strainers. Satellite cells were cultured in 1:1 DMEM-Glutamax (Gibco#41965-039):MCDB201 (Sigma#M6770) containing 20% serum FBS (Biowest S1860). Medium was filtered using 0.22 μm filters. Cells were plated on Matrigel coating (BD Biosciences#354234) and kept in an incubator (37° C., 5% CO2). […] The thus-obtained supernatant replaced FBS in the culture medium; the rest of the medium was unchanged.
Satellite cells were isolated from Tg:Pax7nGFP mice and cells were plated at 2.000 cells per cm^2. After overnight, vortioxetine was added at 10 μM. […] 14 days post-plating, a higher number of reserve cells (Pax7 positive cells that are quiescent in vitro) were detected in the vortioxetine-treated cells (9%±0.7) than in the PBS (3.5%±0.9, p=0.01), and when GR127935 inhibitor was added in vitro the number of reserve cells dropped (3.5%±0.9, p=0.9) (FIG. 11c). […] This difference in expression was lost when SC were plated with the GR127935 5-HT1 BR inhibitor (p=0.4) (FIGS. 11c-e). The positive effects of vortioxetine were lost when GR127935 was added in vitro together with vortioxetine (FIGS. 11c-e). These effects were however persistent when adding the 5-HT2 BR antagonist (FIGS. 11c-e). This means that the positive effects observed when plating vortioxetine in vitro with satellite cells is mediated via the 5HT1B receptor and not 5HT2B.
To test whether, 2 derivatives of vortioxetine, namely histidine-vortioxetine and pyrrolidinium-vortioxetine, could have similar or improved effect compared to the unmodified vortioxetine, the in vitro approach as described in section 2.2.3 above was used and the differentiation cascade of satellite cells was investigated by assessing the expression pattern of Pax7 (a marker of stemness and quiescence) and Myogenin (MyoG, a marker of differentiation) as described above in section 2.2.3. To do so, satellite cells from Tg:Pax7-nGFP were isolated by FACS and plated at 2.000 cells per cm^2 (seeded overnight). The following day, the vortioxetine, its derivatives, or the control PBS was added at 10 μM and the cells were fixed at the indicated time points.

vessels [4] = assay: Vessel number in tibialis anterior of treated mice (Flk1GFP/+ or CD31 immunostaining); type: in vivo, mouse; conditions: vortioxetine I.P 12 days and PBS in osmotic pump
vessels [5] = assay: as above; type: in vivo, mouse
Method: (§2) Immunostaining was performed on cryosections fixed with 4% paraformaldehyde (PFA EMS#15710) in cold PBS, permeabilized with 0.5% Triton X-100 20 min at room temperature, washed, and blocked with 10% BSA for 30 min. Sections were incubated with primary antibodies overnight at 4° C. (see Table 1 below) and with Alexa-conjugated secondary antibodies 1/250 and Hoechst for 45 minutes. Sections were then analysed using an automated axioscan (Zeiss) or inverted Observer.Z1 Apotome (Zeiss). For apoptosis assessment, cells were collected in 2% serum, spun on polyD-lysine (Sigma-Aldrich#P6407), and immediately fixed with PFA 4%.
Throughout the study, focus was made on the tibialis anterior (TA). In skeletal muscle, SC are central for muscle repair. […] SC are localized close to capillaries and angiogenesis is known to be crucial for muscle repair SC survival with cellular interplays between vessel cells and SC. The number of vessels was therefore quantified. In control Flk1^GFP/+ mouse (placebo), the number of vessels was of 870±213.1 vessels per mm^2 and increased after 3 weeks of I.P treatment (1103±110.2 vessels per mm^2), and even more after 6 weeks (1384±175.3 vessels per mm^2, p=0.008) (FIG. 2e). Neovessels presented with normal histological appearance associating a basal lamina and a permeable lumen sometimes containing red blood cells. […] 841±137 CD31+ cells per mm^2 were counted in the placebo-treated mice vs. 2260±361 CD31+ cells per mm^2 in the fluoxetine-treated mice, p=0.008 (FIG. 2t-v), confirming the previous observation.
In order to investigate the effect of vortioxetine on vessels number, intra peritoneal (I.P) administration of 20 mg/kg of vortioxetine was performed for either 12 days, 3 or 6 weeks to C57Bl/6 mice (FIG. 10a). The number of CD31+ cells was counted by immunostaining. The number of vessels in the placebo is (863.5±115.6 vessels per mm^2) and increases after 12 days of I.P treatment (2274±926 vessels per mm^2, p=0.03), and even more after 3 weeks (2847±705 vessels per mm^2, p=0.02) (FIG. 10b). However, there was no statistically significant differences between 12 days and 3 weeks of treatment (p=0.49). Neovessels display a normal histological appearance associated with a basal lamina and a permeable lumen sometimes containing red blood cells. The daily administration of vortioxetine IP might cause unwanted peritoneal inflammation that could interfere with angiogenesis since inflammation and neovascularization are intertwined in some models. Vortioxetine was therefore administered per os (P.O) for 12 days: a similar increase in the number of vessels was observed (2451±595 vessels per mm^2 p=0.028, FIG. 10c). To further confirm those results, vortioxetine will be administered to Flk1^GFP/+ mice P.O and I.P for 12 days, and an ex vivo Matrigel angiogenesis assay and plasma from vortioxetine treated mice will be used on HUVEC (endothelial cells).

satellite cells [6] = assay: Satellite cells in vitro in plasma of treated mice (live videomicroscopy, immunostaining); type: cell-based, mouse; conditions: plasma from fluoxetine-treated mice plus MDL100907
Method: as §1
Cells isolated by FACS were plated overnight on a 24-well glass bottom plate (P24G-0-10-F; MatTek) coated with matrigel (BD Biosciences#354234) and placed in an incubator in pre-equilibrated medium (1:1 DMEM Glutamax: MCDB [Sigma-Aldrich], 20% FCS (Biowest S1860). The plate was then incubated at 37° C., 5% CO2 (Zeiss, Pecon). A Zeiss Observer.Z1 connected with a LCI PInN 10×/0.8 W phaseII objective and AxioCam camera piloted with AxioVision was used. Cells were filmed for up to 5 days, and images were taken every 30 min with brightfield and phase filters and MozaiX 3×3 (Zeiss). Raw data were transformed and presented as a video.
Those results were confirmed in vitro (FIG. 7a). […] This difference was lost when SC were plated with GR127935 (p=0.4) (FIG. 7e). The faster exit of quiescence and higher division rates were also lost when adding GR127935 in vitro (FIGS. 7f,g). The effects of the plasma from fluoxetine-treated animals were persistent when adding MDL100907 (FIGS. 7b-g).

Tibialis anterior = assay: Muscle regeneration after notexin injury of tibialis anterior; type: in vivo, mouse; conditions: antagonist together with fluoxetine; SC, differentiating cells, fiber size, calcium deposits, fibrosis, Gr1 and F4/80 cells
Method: Animals were anesthetized with ketamine (Imalgene1000 100 mg/Kg Merial) and Xylazine (Rompun2% 20 mg/Kg Bayer) prior to injury. Animals were hydrated and treated with analgesic (Buprenorphin Axience 0.3 mg/kg) twice a day for 4 d following injury. For the injury, mice were anesthetized as previously described and 10 μl of 12.5 μg/ml Notexin (Lotaxan) was injected in the Tibialis anterior. All protocols were reviewed by the Institut Pasteur, the competent authority, for compliance with the French and European regulations on Animal Welfare and with Public Health Service recommendations. This project has been reviewed and approved (#2013-0044) by the Institut Pasteur ethic committee (C2EA 89-CETEA).
Tibialis anterior (TA) was carefully dissected and snap frozen in liquid-nitrogen-cooled isopentane for a few minutes and stored at −80° C. prior to cryosectioning (10 μm sections). Sections were kept at room temperature overnight before staining. Sections were then rehydrated in PBS for 10 minutes and fixed in 10% formalin for 3 minutes. The sections were then routinely stained with haematoxylin and eosin (HE) using an automated stain machine or manually with red sirius.
as §2
For image analysis (fibrosis quantification), ImageJ 1.46r software was using between 10 different photos randomly taken per section and 3 sections minimum per experimental group. The pictures were converted in a binary image and the pixel values then collected. For fibre size, the sections were immunostained with rabbit anti Laminin (Sigma-Aldrich #L9393) diluted at 1/200, overnight at 4° C. Secondary Donkey ant Rabbit 488 (DL488 JacksonImmuno #711486152) were used at 1/200 45 minutes at room temperature. The fibre perimeter was done automatically by using Pixcavator® software.

## Cc1ccc(Sc2ccccc2N2CCNCC2)c(C)c1 [vortioxetine, 1-[2-(2,4-Dimethylphenylsulfanyl)phenyl]piperazine]
Satellite cells [1]; vortioxetine 12 days, 20 mg/Kg
  SC increase by histological count on TA sections: two-fold increase
Satellite cells [2]; vortioxetine 3 weeks
  Number of satellite cells per TA by cytometry: 9351 satellite cells
Satellite cells [2]; vortioxetine 12 days, 20 mg/Kg
  Number of satellite cells per TA by cytometry: 8660 satellite cells
Satellite cells [2]; vortioxetine P.O at 20 mg/kg
  SC number after P.O administration vs I.P: a similar increase in SC number
Satellite cells [3]
  Pax7+ (reserve, self-renewing) cells 14 days post-plating: 9% and 10.5±0.65%
  Pax7 positive cells 4 days post-plating: 23% and 23.7±2.78%
  Cells MyoG+ (Myogenin staining): 34.5±2.5%
Satellite cells [3]; vortioxetine 10 μM vs PBS vs GR127935
  MyoD (activation marker) expression between conditions: did not differ at any time investigated
Satellite cells [3]; vortioxetine 10 μM, 4 days post-plating
  Myogenin (MyoG) expression increase: 2 times increase
Vessels [4]
  Number of vessels: 2274±926 vessels per mm^2
Vessels [5]; vortioxetine 20 mg/kg I.P, 3 weeks, C57Bl/6 mice
  Number of vessels (CD31+): 2847±705 vessels per mm^2
Vessels [5]; vortioxetine 20 mg/kg I.P, 12 days, C57Bl/6 mice
  Number of vessels (CD31+): 2274±926 vessels per mm^2
Vessels [5]; vortioxetine per os (P.O), 12 days
  Number of vessels (CD31+): 2451±595 vessels per mm^2

## CCCOc1ccc2[nH]cc(C3=CCNCC3)c2n1 [5-HT1B agonist]
Satellite cells [3]; direct addition in the culture media, Pax7+ and Myogenin+ cells
  Effect of direct addition on differentiation and self-renewal of SC: triggered the same effect as the addition of plasma from fluoxetine-treated mice

## COc1cccc([C@H](O)C2CCN(CCc3ccc(F)cc3)CC2)c1OC [MDL100907]
Satellite cells [1]; antagonist together with fluoxetine treatment
  Inhibition of fluoxetine effects on SC and vessel number by the antagonist: no inhibition of fluoxetine effects were observed
Satellite cells [2]; MDL100907 together with vortioxetine
  Inhibition of vortioxetine effects on vessels and SC number by the antagonist: No inhibition of vortioxetine effects was observed
Satellite cells [3]; 5-HT2 BR antagonist together with vortioxetine 10 μM
  Effects of vortioxetine when adding the 5-HT2 BR antagonist: persistent
Satellite cells [6]
  Effects of the plasma from fluoxetine-treated animals when adding MDL100907: persistent
Tibialis anterior
  Effect of the antagonist on the beneficial effects of fluoxetine after injury: did not suppress the beneficial effects of fluoxetine

## Cc1ccc(Sc2ccccc2N2CC[N+]3(CCCC3)CC2)c(C)c1 [pyrrolidinium-vortioxetine]
Satellite cells [2]; 20 mg/Kg IP for 12 days, TgPax7nGFP mice
  Number of SCs in the TA vs PBS: doubling
Satellite cells [3]; 10 μM, 14 days post-plating
  Increase in number of self-renewing cells compared with vortioxetine alone: 20%
Satellite cells [3]
  Pax7+ (reserve, self-renewing) cells 14 days post-plating: 12.5±1.9%
  Pax7 positive cells 4 days post-plating: 25.25±4%
  Cells MyoG+ (Myogenin staining): 19.75±0.47%
